From patent US20250304623A1, “PEPTIDES FOR INTRACELLULAR DELIVERY” (UNIVERSIDADE DE SANTIAGO DE COMPOSTELA, priority 2022, published 2025)
*: point of attachment. NHNH2 = NN*

Columns and labels:
Hela cells = assay: EGFP mRNA delivery, robotic library screening, HeLa; type: cell-based
Experimental: Cells were seeded in a 96 well plate the day before the experiment at a concentration of 50,000 cell/mL (100 μL/w) in DMEM+10% FBS+1% Gln-Abt. For robotic library screening, the delivery of EGFP-mRNA (from TriLink, fully substituted with 5-methoxyuridine, capped and polyadenylated; TriLink, CleanCap® EGFP mRNA (5moU), ref. L-7201) in six different cell lines was performed. Amphiphilic molecule stock solutions were prepared in DMSO as described above and diluted in DMEM to afford a range of concentrations. The solutions of EGFP-mRNA/amphiphilic molecule complexes were freshly prepared prior to the transfection experiments. 35 μL of the corresponding amphiphile were added to 10 μL of a solution of EGFP-mRNA at 10 ng/μL in DMEM. The mixture was shaken for 30 min at room temperature before the addition to the cells. The cell medium was aspirated, and cells were washed with PBS twice. Cells were covered with 39 μL of DMEM and 11 μL of the complex's solution were added to the cells and incubated for 4 h (final concentration of peptide=2.5, 5 and 10 μM; final concentration of EGFP-mRNA=25 ng/well). After the incubation, the medium was replaced by 100 μL of fresh DMEM supplemented with 10% FBS. The total EGFP fluorescence was quantified after 72 h in a well plate reader. Amphiphile transfection efficiency was compared and normalized to Lipofectamine® MessengerMax efficiency (value of 1 in Tables 1-5 and 7; double underlined numbers). All experiments were done in triplicate.
Tables 1-7: RLuc (pDNA) or EGFP (mRNA) expression levels were normalized to Lipofectamine reagents (value=1) and expressed as fold-times signal increase. In the case of siRNA, the siRNA treated cells fluorescence was compared with siMOCK control fluorescence, while Cas9-RNP mediated knockout was measured against the fluorescence of untreated cells. In both siRNA and Cas9-RNP, values are expressed as % fluorescence reduction. Amphiphile concentration was 5 μM in all cases. All experiments were performed in triplicate.
Tables 14-19 show the mean (triplicates) fluorescence intensity measured after the transfection of EGFP mRNA by different amphiphiles at different concentrations in a variety of cell lines. Background fluorescence values, accounted by untreated control cells, were subtracted for processing.

[1] = system: Hek293 cells expressing EGFP; assay: Cas9-RNP delivery against EGFP (gene editing, plate reader), Hek293; type: cell-based
Experimental: To generate an EGFP expressing HeLa cell line, HeLa cells were transfected with EGFP pDNA (pEGFP-C1, Clontech) and stable transfectants were selected with 400 μg/mL of G-418 (Millipore). Green clones were selected by epifluorescence microscopy and tested for EGFP expression stability through several passages. […] All other EGFP-expressing cell lines were obtained in a similar way from parent non-EGFP-expressing cell lines.
Cells expressing EGFP were seeded in a 96 well plate the day before the experiment at a concentration of 50,000 cell/mL (100 μL/w) in DMEM+10% FBS+1% Gln-Abt. For robotic library screening, the delivery of Cas9-RNP against EGFP (RNP designed to knock-out the gene encoding for the enhanced green fluorescent protein (EGFP)) was performed. For RNP assembly, 9.2 μL of crRNA and 9.2 μL of tracrRNA were mixed in 211.6 μL of Nuclease-Free Duplex Buffer (IDT), incubated for 5 min at 95° C. and slowly cooled at rt (see I. Lostalé-Seijo, et al. Peptide/Cas9 nanostructures for ribonucleoprotein cell membrane transport and gene edition, Chem. Sci., 2017). Cas9 protein was dissolved in DMEM at a final concentration of 4 μM and equal volumes of the RNA complex and Cas9 were mixed and incubated for 5 min at rt. 75 μL of the corresponding amphiphile concentrations were added to 5 μL of RNP at 2 μM. The mixture was shaken for 30 min at room temperature before the addition to the cells. The cell medium was aspirated, and cells were washed twice with PBS. Cells were covered with 30 μL of DMEM and 20 μL of the RNP/amphiphile complexes were added to the cells (final peptide concentrations=2.5, 5 and 10 μM; final Cas9-RNP concentration=50 nM) and incubated for 4 h. After the incubation, the medium was replaced by 100 μL of fresh DMEM supplemented with 10% FBS. The total EGFP fluorescence was quantified after 72 h in a plate reader (FIG. 2, Table 1 (right) and Table 6). All experiments were done in triplicate. […]
Tables 26-31 show the mean (triplicates) percentage of gene editing, accounted by GFP fluorescence intensity decrease (% of reduction), measured after the transfection of Cas9-RNP by different amphiphiles at different concentrations in a variety of cell lines. Background values, accounted by untreated control cells, were subtracted for processing.

Substance	mean fluorescence intensity (EGFP mRNA) (Hela cells; HeLa, Dodecanal, 2.5 μM)	mean fluorescence intensity (EGFP mRNA) (Hela cells; HeLa, Dodecanal, 5 μM)	mean fluorescence intensity (EGFP mRNA) (Hela cells; HeLa, Myristoleyl, 2.5 μM)	mean fluorescence intensity (EGFP mRNA) (Hela cells; Hela, Myristoleyl, 5 μM)	percentage of gene editing, GFP fluorescence intensity decrease (% of reduction) ([1]; Dodecanal, 5 μM) [%]	percentage of gene editing, GFP fluorescence intensity decrease (% of reduction) ([1]; Dodecanal, 10 μM) [%]	mean fluorescence intensity (EGFP mRNA) (Hela cells; HeLa, Oleyl, 5 μM)	mean fluorescence intensity (EGFP mRNA) (Hela cells; HeLa, Petroselinyl, 10 μM)	mean fluorescence intensity (EGFP mRNA) (Hela cells; Hela, Petroselinyl, 5 μM)	percentage of gene editing, GFP fluorescence intensity decrease (% of reduction) ([1]; Oleyl, 10 μM) [%]	percentage of gene editing, GFP fluorescence intensity decrease (% of reduction) ([1]; Petroselinyl, 5 μM) [%]	mean fluorescence intensity (EGFP mRNA) (Hela cells; HeLa, Petroselinyl, 2.5 μM)	percentage of gene editing, GFP fluorescence intensity decrease (% of reduction) ([1]; Myristoleyl, 15 μM) [%]	percentage of gene editing, GFP fluorescence intensity decrease (% of reduction) ([1]; Palmitoleyl, 5 μM) [%]	percentage of gene editing, GFP fluorescence intensity decrease (% of reduction) ([1]; Palmitoleyl, 10 μM) [%]	percentage of gene editing, GFP fluorescence intensity decrease (% of reduction) ([1]; Palmitoleyl, 15 μM) [%]	percentage of gene editing, GFP fluorescence intensity decrease (% of reduction) ([1]; Petroselinyl, 10 μM) [%]	percentage of gene editing, GFP fluorescence intensity decrease (% of reduction) ([1]; Petroselinyl, 15 μM) [%]	mean fluorescence intensity (EGFP mRNA) (Hela cells; Hela, Dodecanal, 10 μM)	mean fluorescence intensity (EGFP mRNA) (Hela cells; Hela, Myristoleyl, 10 μM)	also measured
Ac-RK*LRRLLRK*-NH2 (Ac-RK(NHNH2)LRRLLRK(NHNH2)-NH2; not fully specified; printed as Ac-RK*LRRLLRK*-NH2; also: K*2,K*9: native or modified lysine (ε-amide to a linker)) [Peptide 9.2]	933	390	1738	585	−38	−55	–	–	–	–	–	–	–	–	–	–	–	–	–	–	–
Ac-RK*LRRK*LRK*-NH2 (Ac-RK(NHNH2)LRRK(NHNH2)LRK(NHNH2)-NH2; not fully specified; printed as Ac-RK*LRRK*LRK*-NH2; also: K*2,K*6,K*9: native or modified lysine (ε-amide to a linker)) [Peptide 9.3]	2347	3482	11661	2874	−11	−53	441	1322	9616	−5	−12	–	–	–	–	–	–	–	–	–	mean fluorescence intensity (EGFP mRNA) (Hela cells; Hela, Oleyl, 10 μM): 335; mean fluorescence intensity (EGFP mRNA) (Hela cells; Hela, Palmitoleyl, 5 μM): 3313; percentage of gene editing, GFP fluorescence intensity decrease (% of reduction) ([1]; Oleyl, 5 μM): 12%
Ac-RHLK*RLK*RRLK*RL-NH2 (Ac-RHLKRLKRRLKRL-NH2; not fully specified (residues 4, 7, 11); printed as Ac-RHLK*RLK*RRLK*RL-NH2; also: linker on K* not given here) [13(Arg-His)]	–	–	–	–	21	–	–	−15	135	−8	8	360	−75	1	5	−26	−19	−44	–	–	mean fluorescence intensity (EGFP mRNA) (Hela cells; HeLa, Palmitoleyl, 2.5 μM): 578; percentage of gene editing, GFP fluorescence intensity decrease (% of reduction) ([1]; Oleyl, 15 μM): −8%
Ac-RK*LRK*K*L-NH2 (Ac-RK(NHNH2)LRK(NHNH2)K(NHNH2)L-NH2; not fully specified; printed as Ac-RK*LRK*K*L-NH2; also: K*2,K*5,K*6: native or modified lysine (ε-amide to a linker)) [Peptide 7.3]	6327	4738	13591	–	−11	–	501	732	–	−34	29	9039	–	23	−1	3	34	23	572	647	mean fluorescence intensity (EGFP mRNA) (Hela cells; Hela, Palmitoleyl, 10 μM): 189; percentage of gene editing, GFP fluorescence intensity decrease (% of reduction) ([1]; Dodecanal, 15 μM): −15%; percentage of gene editing, GFP fluorescence intensity decrease (% of reduction) ([1]; Myristoleyl, 5 μM): −20%
Ac-RRLK*RLK*RRLK*RL-NH2 [Peptide 13.3]	–	445	535	580	18	−18	427	489	497	–	–	633	−48	−7	–	–	–	–	393	424	percentage of gene editing, GFP fluorescence intensity decrease (% of reduction) ([1]; Myristoleyl, 5 μM): −12%
